Measured values published in paper PMC6600542 (Molecules, 2019).
Values joined by “and” are separate entries in the source; they are usually repeats but may differ in a detail not shown here. Equal entries are not always repeated.

Experiments:
[1] = target: human FXa (Homo sapiens, UniProt P00742); test: FXa chromogenic substrate hydrolysis assay; format: biochemical; conditions: pH 7.4, 37 °C
Description: Direct inhibition of human FXa and α-thrombin of the common coagulation pathway and human plasmin of the fibrinolysis pathway were measured using the corresponding chromogenic substrate hydrolysis assays at 37 °C and pH 7.4, as reported earlier using the 96-microplate platform. […] After 10 min incubation, 5 µL Spectrozyme FXa (5 mM stock conc.) was rapidly added and the residual activity of FXa was measured from the initial rate of increase in absorbance at 405 nm. […] The concentration vs effect curve was constructed using logistic Equation (1) from which the potency (IC50) and efficacy (ΔY) of inhibition were also obtained.

[2] = target: human plasmin (Homo sapiens, UniProt P00747); test: Michaelis-Menten kinetics of Spectrozyme PL hydrolysis by plasmin; format: biochemical; conditions: for VMAX of Spectrozyme PL hydrolysis: pH 7.4, 37 °C
human plasmin, sequence (P00747 581-810 limits assumed): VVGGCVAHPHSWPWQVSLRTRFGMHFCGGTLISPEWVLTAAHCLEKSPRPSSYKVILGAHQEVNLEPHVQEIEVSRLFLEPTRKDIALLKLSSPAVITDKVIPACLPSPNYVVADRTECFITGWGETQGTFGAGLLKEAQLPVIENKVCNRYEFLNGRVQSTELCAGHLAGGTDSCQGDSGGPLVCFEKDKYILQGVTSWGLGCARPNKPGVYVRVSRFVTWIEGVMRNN
human plasmin, sequence (P00747 97-580 partner limits assumed): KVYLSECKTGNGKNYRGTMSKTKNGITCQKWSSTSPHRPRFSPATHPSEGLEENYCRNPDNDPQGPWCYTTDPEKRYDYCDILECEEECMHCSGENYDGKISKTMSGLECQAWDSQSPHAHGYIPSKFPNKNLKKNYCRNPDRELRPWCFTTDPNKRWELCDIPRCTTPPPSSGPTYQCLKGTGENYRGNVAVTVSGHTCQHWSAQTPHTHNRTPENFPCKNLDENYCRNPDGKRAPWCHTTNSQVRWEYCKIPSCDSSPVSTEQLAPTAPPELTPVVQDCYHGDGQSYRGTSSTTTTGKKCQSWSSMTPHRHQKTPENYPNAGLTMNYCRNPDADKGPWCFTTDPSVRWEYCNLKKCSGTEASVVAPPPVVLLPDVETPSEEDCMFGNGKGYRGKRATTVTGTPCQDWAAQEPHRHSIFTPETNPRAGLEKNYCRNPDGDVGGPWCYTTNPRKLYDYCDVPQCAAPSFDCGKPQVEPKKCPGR
Description: The initial rate of Spectrozyme FXa hydrolysis by human FXa (87 nM) or that of Spectrozyme PL hydrolysis by human plasmin (120 nM) was monitored from the linear increase in absorbance at 405 nm corresponding to less than 10% consumption of the substrate. […] The data were fitted by Michaelis-Menten Equation (2) to determine KM (substrate affinity to the enzyme) and VMAX (maximum velocity of enzyme reaction). (2) Vi=VMAX×[S]/KM+[S]

[3] = tested on: platelet-aggregation induced by adenosine diphosphate, epinephrine, thrombin, and collagen; conditions: cited from earlier work
[4] = target: T1, human FXIIIa (Homo sapiens, UniProt P00488); test: FXIIIa fluorescence-based transglutamination assay; format: biochemical; conditions: pH 7.4, 37 °C
T1 construct: followed by the addition of 2 μL human FXIIIa (0.3 μM); purchased Haematologic Technologies, Inc
T1 sequence (P00488 39-732 limits assumed): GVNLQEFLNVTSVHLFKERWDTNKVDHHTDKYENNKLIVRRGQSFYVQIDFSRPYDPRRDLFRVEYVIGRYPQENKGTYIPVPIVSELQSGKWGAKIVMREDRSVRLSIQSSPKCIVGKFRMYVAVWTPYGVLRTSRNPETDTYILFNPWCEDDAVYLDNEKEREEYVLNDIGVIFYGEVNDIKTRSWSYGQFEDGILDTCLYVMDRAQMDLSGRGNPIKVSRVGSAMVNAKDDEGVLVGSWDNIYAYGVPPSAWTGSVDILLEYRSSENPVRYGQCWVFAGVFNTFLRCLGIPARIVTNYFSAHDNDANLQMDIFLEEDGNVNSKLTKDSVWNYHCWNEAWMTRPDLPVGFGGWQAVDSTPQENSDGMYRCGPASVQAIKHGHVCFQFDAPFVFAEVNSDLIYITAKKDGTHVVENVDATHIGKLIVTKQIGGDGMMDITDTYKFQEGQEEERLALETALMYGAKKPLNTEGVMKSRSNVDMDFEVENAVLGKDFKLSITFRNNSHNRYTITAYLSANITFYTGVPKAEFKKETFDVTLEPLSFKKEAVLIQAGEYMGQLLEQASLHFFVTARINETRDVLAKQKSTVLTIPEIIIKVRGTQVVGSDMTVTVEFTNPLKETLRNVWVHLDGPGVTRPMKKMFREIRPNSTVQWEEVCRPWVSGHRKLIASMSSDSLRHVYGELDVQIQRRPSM
Description: (§1) Direct inhibition of the human coagulation transglutaminase FXIIIa was also studied using a fluorescence-based transglutamination assay as reported in the literature.
The activity of FXIIIa was evaluated by the addition of 5 μL dansylcadaverine (2 mM) and measuring the initial rate of increase in fluorescence emission (λEx. = 360 nm and λEm. = 490 nm). In all assays, the dose dependence of the fractional residual enzyme activity, if any, was analyzed using Equation (1) above to obtain the apparent concentration of the test molecule required to reduce the enzyme activity to 50% of its initial value. All assays were performed three times.

[5] = tested on: normal human plasma; test: APTT clotting assay, normal human plasma; format: biochemical; conditions: normal human plasma (text)
Description: (§2) For the PT assay, thromboplastin-D was reconstituted according to the manufacturer’s directions and warmed to 37 °C. […] After incubation for 4 min at 37 °C, clotting was initiated by adding 100 μL of prewarmed 25 mM CaCl2 and the time to clotting was noted. […] To determine the in vitro effect on the APTT of deficient human plasmas, the APTT assay was repeated, using human plasmas deficient of factor VII (FVII), factor IX (FIX), FXI, or factor XII (FXII). […] The positive control used in APTT and PT assays was rivaroxaban, a clinically used FXa inhibitor. Under the conditions reported, rivaroxaban doubled the APTT and PT at concentrations of 0.123 ± 0.003 µM and 0.193 ± 0.043 µM, respectively.

[6] = target: T2, bovine chymotrypsin (Bos taurus, UniProt P00766); test: Chymotrypsin chromogenic substrate hydrolysis assay; format: biochemical; conditions: pH 7.4
T2 construct: purchased Millipore-Sigma
Description: as §1
After 10 min incubation, 5 µL FXIa substrate (6.9 mM stock concentration) was rapidly added and the residual FXIa activity was measured from the initial rate of increase in absorbance at 405 nm. Assays were performed in similar fashion with trypsin and chymotrypsin. Stock concentrations used were 18.9 µg/mL (trypsin) and 22.7 mM (S-2222) for bovine trypsin assay (final volume was 200 µL) and 2 µg/mL (chymotrypsin) and 16.2 mM (N-Succinyl-Ala-Ala-Pro-Phe-p-nitroanilide) for bovine chymotrypsin assay (final volume was 200 µL). The buffer used for FXIa, trypsin, chymotrypsin assays was 50 mM Tris-HCl buffer, pH 7.4, containing 150 mM NaCl, 2.5 mM CaCl2, 0.1% PEG8000, and 0.02% Tween80. Neutrophil elastase inhibition assay was performed in a 96-well plate with a final volume of 100 µl with 0.125 M 4-(2-hydroxyethyl)-1-piperazineethanesulfonic acid (HEPES) buffer, pH 7.4 containing 0.125% Triton-X 100, as reported earlier. […] After incubation, 3 µL neutrophil elastase substrate (S-1384; 25 mM stock conc.) was rapidly added and the residual enzyme activity measured from the initial rate of increase in the absorbance at 405 nm.

[7] = tested on: normal human plasma; test: PT clotting assay, normal human plasma; format: biochemical; conditions: for concentration to double the PT: normal human plasma (text)
Description: as §2

[8] = tested on: human plasma deficient of FVII; test: APTT clotting assay, FVII-deficient plasma; format: biochemical
Description: as §2

human FXa, sequence (P00742 235-488 limits assumed): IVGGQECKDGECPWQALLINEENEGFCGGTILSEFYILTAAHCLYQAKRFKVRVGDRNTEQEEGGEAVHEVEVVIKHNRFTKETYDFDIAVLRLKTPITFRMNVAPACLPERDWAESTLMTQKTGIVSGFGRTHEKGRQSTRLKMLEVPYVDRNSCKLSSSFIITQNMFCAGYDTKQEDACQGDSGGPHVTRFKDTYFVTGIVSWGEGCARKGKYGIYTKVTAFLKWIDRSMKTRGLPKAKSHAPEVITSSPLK
human FXa, sequence (P00742 41-179 partner limits assumed): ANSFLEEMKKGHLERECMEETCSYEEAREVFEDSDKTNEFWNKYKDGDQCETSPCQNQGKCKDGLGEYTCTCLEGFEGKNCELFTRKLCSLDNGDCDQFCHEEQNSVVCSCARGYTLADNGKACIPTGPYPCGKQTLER

## N=C(N)c1ccc(OCCCCCOc2ccc(C(=N)N)cc2)cc1 [pentamidine isethionate, 4,4′-(pentane-1,5-diylbis(oxy))-dibenzimidamide]
[1]
  HS: 0.97 ± 0.07
  IC50: ~10 µM and 10.4 µM
  ∆Y (efficacy): 101.6 ± 2.9%
[1]; listed as pentamidine
  ∆Y (efficacy): ~ 100%
[2]; 10 µM pentamidine isethionate
  VMAX of Spectrozyme PL hydrolysis: 78.7 ± 2.0 mAU/min
[2]; 20 µM pentamidine isethionate
  VMAX of Spectrozyme PL hydrolysis: 88.4 ± 1.0 mAU/min
[2]; 50 µM pentamidine isethionate
  VMAX of Spectrozyme PL hydrolysis: 92.9 ± 3.2 mAU/min
[2]; 100 µM pentamidine isethionate
  VMAX of Spectrozyme PL hydrolysis: 90.9 ± 6.5 mAU/min
[2]; Michaelis-Menten kinetics
  type of inhibition of plasmin: competitively inhibits
[2]; inhibitor 100 μM vs absence
  increase of KM for Spectrozyme PL: ~ 13.9 fold
[3]
  concentration that completely inhibited platelet-aggregation: greater than 8.4 µM
[4]
  IC50: > 50 µM
[5]
  concentration to double the APTT: 27.88 ± 2.99 µM
[5]; listed as pentamidine
  concentration to double the APTT: lower than 50 µM
[6]
  IC50: > 1.75 mM
[7]; PT assay, normal human plasma
  PTEC2×, concentration to double clotting time: 45.70 ± 0.85 µm
[7]
  concentration to double the PT: 45.7 µM and 45.70 ± 0.85 µM
[7]; listed as pentamidine
  concentration to double the PT: lower than 50 µM
[8]
  APTTEC2×, concentration to double clotting time: 26.71 ± 0.50 µm
